{
  "source": "patent US20060251638A1",
  "about": "“Cytoprotection through the use of hif hydroxylase inhibitors” (priority 2003, published 2006)",
  "key": {"H9c2 rat cardiomyocytes": {"system": "H9c2 rat cardiomyocytes", "assay": "Intracellular ATP levels in H9c2 cardiomyocytes after oxygen and glucose deprivation (glucose-free DMEM, 2 mM KCN)", "assay_type": "cell-based", "conditions": "H9c2, 20 μM pretreatment 24 hours, glucose-free DMEM and 2 mM KCN for 30 minutes; vehicle control 415", "experimental": "In similar experiments, H9c2 rat cardiomyocytes were pretreated with either vehicle control (0.5% DMSO) or 20 μM of Compound A, Compound B, Compound C, Compound D, Compound E, Compound F, Compound G, or compound H. After 24 hours, cells were washed with serum-free DMEM and subjected to oxygen and glucose deprivation by incubating the cells in glucose-free DMEM and 2 mM KCN for 30 minutes. Intracellular ATP levels were then determined."}, "[1]": {"system": "gene encoding adrenomedullin", "assay": "Adrenomedullin gene expression in Hep3B cells (microarray)", "assay_type": "cell-based, human", "conditions": "25 μM compound, 6 hrs, average of two determinations", "experimental": "Hep3B cells (ATCC No. HB-8064) were grown in DMEM containing 8% fetal bovine serum. Hep3B cells were seeded into 6-well culture dishes at ˜500,000 cells per well. After 8 hours, the media was changed to DMEM containing 0.5% fetal bovine serum and the cells were incubated for an additional 16 hours. Compound A, compound B, compound C, compound G, or compound H was added to the cells (25 μM final concentration) and the cells were incubated for various times. Control cells were incubated with vehicle (DMSO) with no compound treatment. Harvested cells were assessed for cell viability (GUAVA), or added to RNA extraction buffer (RNeasy, Qiagen) and stored at −20° C. for subsequent RNA purification.\nRNA was precipitated in 0.3 M sodium acetate (pH 5.2), 50 ng/ml glycogen, and 2.5 volumes of ethanol for one hour at −20° C. Samples were centrifuged and pellets were washed with cold 80% ethanol, dried, and resuspend in water. Double stranded cDNA was synthesized using a T7-(dT)24 first strand primer (Affymetrix, Inc., Santa Clara Calif.) and the SUPERSCRIPT CHOICE system (Invitrogen) according to the manufacturer's instructions. The final cDNA was extracted with an equal volume of 25:24:1 phenol:chloroform:isoamyl alcohol using a PHASE LOCK GEL insert (Brinkman, Inc., Westbury N.Y.). The aqueous phase was collected and cDNA was precipitated using 0.5 volumes of 7.5 M ammonium acetate and 2.5 volumes of ethanol. Alternatively, cDNA was purified using the GENECHIP sample cleanup module (Affymetrix) according to the manufacturer's instructions.\nBiotin-labeled cRNA was synthesized from the cDNA in an in vitro […] (IVT) reaction using a BIOARRAY HighYield RNA transcript labeling kit (Enzo Diagnostics, Inc., Farmingdale N.Y.) according to the manufacturer's instructions. Final labeled product was purified and fragmented using the GENECHIP sample cleanup module (Affymetrix) according to the manufacturer's instructions.\nHybridization cocktail was prepared by bringing 5 μg probe to 100 μl in 1× hybridization buffer (100 mM MES, 1 M [Na^+], 20 mM EDTA, 0.01% Tween 20), 100 μg/ml herring sperm DNA, 500 μg/ml acetylated BSA, 0.03 nM contol oligo B2 (Affymetrix), and 1× GENECHIP eukaryotic hybridization control (Affymetrix). The cocktail was sequentially incubated at 99° C. for 5 minutes and 45° C. for 5 minutes, and then centrifuged for 5 minutes. The […] array (Affymetrix) was brought to room temperature and then prehybridized with 1× hybridization buffer at 45° C. for 10 minutes with rotation. The buffer was then replaced with 80 μl hybridization cocktail and the array was hybridized for 16 hours at 45° C. at 60 rpm with counter balance. Following hybridization, arrays were washed once with 6×SSPE, 0.1% Tween 20, and then washed and stained using R-phycoerythrin-conjugated streptavidin (Molecular Probes, Eugene Oreg.), goat anti-streptavidin antibody (Vector Laboratories, Burlingame Calif.), and a GENECHIP Fluidics Station 400 instrument (Affymetrix) according to the manufacturer's EukGE-WS2v4 protocol (Affymetrix). Arrays were analyzed using a GENEARRAY scanner (Affymetrix) and Microarray Suite software (Affymetrix).\nRNA quality was monitored by capillary electrophoresis (Agilent Bioanalyzer). […] Array performance was analyzed with Affymetrix MicroArray Suite (MAS) software and individual probe sets were assigned “present”, “marginal, and “absent” calls according to software defaults. […]"}},
  "data": [
    {"smiles": "O=C(O)CNC(=O)c1ncc2cc(Oc3ccccc3)ccc2c1O", "note": "[Compound G, [(4-Hydroxy-7-phenoxy-isoquinoline-3-carbonyl)-amino]-acetic acid]", "values": [
      {"measurement": "ATP (relative light units)", "setting": "H9c2 rat cardiomyocytes", "value": 2128.3, "unit": "relative light units"},
      {"measurement": "Adrenomedullin gene expression, fold-increase above non-treated control", "setting": "[1]", "value": 3.278, "unit": "fold"}
    ]}
  ]
}
